In ChEMBL document CHEMBL2169758, “Evaluation of new scaffolds of myeloperoxidase inhibitors by rational design combined with high-throughput virtual screening” (J Med Chem, 2012):
The source made the active and inactive calls. The rule behind the calls is not given here.

Experiments:
[1] = target: T1, Myeloperoxidase (Homo sapiens) (UniProt P05164); test: Inhibition of human recombinant myeloperoxidase-mediated Apo B-100 oxidation on LDL at 5 uM after 5 min by ELISA
T1 sequence (whole entry): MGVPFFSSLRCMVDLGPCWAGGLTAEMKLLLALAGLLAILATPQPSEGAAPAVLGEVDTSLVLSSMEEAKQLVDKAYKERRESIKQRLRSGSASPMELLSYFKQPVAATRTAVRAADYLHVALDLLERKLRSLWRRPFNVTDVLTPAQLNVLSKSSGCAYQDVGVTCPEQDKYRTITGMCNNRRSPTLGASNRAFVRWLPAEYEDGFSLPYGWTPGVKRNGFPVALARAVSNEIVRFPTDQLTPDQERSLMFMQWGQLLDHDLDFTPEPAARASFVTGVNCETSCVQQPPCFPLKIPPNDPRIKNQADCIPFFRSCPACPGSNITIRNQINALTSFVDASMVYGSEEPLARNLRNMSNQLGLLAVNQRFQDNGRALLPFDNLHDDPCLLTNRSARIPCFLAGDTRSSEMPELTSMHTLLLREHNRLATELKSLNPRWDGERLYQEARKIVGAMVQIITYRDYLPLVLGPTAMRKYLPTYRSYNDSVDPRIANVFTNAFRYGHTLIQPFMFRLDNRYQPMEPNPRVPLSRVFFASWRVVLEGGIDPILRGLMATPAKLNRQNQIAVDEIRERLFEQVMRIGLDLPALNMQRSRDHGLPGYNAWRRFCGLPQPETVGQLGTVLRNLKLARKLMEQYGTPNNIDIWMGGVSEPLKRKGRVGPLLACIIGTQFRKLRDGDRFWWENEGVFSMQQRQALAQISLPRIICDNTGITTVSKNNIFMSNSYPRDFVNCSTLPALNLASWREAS

[2] = target: T1, Myeloperoxidase (Homo sapiens); test: Inhibition of human recombinant myeloperoxidase-mediated Apo B-100 oxidation on LDL at 1.25 uM after 5 min by ELISA
[3] = target: T1, Myeloperoxidase (Homo sapiens); test: Inhibition of human recombinant myeloperoxidase assessed as compound 1 formation by spectrophotometry in presence of H2O2
[4] = target: T1, Myeloperoxidase (Homo sapiens); test: Ratio of apparent rate constant of compound 1 formation to apparent rate constant of compound 2 formation for human recombinant myeloperoxidase
Myeloperoxidase [5] = target: T2, Myeloperoxidase (Homo sapiens, UniProt P05164); test: Inhibition of recombinant human myeloperoxidase assessed as taurine chloramine production after 5 mins by spectrophotometry in presence of H2O2; format: single protein
T2 sequence (P05164 whole entry): T1 sequence (whole entry)

[6] = target: T1, Myeloperoxidase (Homo sapiens); test: Inhibition of human recombinant myeloperoxidase-mediated Apo B-100 oxidation on LDL at 50 uM after 5 min by ELISA
[7] = target: T1, Myeloperoxidase (Homo sapiens); test: Inhibition of human recombinant myeloperoxidase assessed as compound 2 formation by spectrophotometry in presence of H2O2
Myeloperoxidase [8] = target: T2, Myeloperoxidase; test: Inhibition of myeloperoxidase
Myeloperoxidase [9] = target: T2, Myeloperoxidase; test: Inhibition of recombinant human myeloperoxidase
Myeloperoxidase [10] = target: T2, Myeloperoxidase; test: Binding affinity to recombinant human myeloperoxidase

Cn1c(=O)[nH]c(=O)c2c1nc(NCCN)n2CCCOc1ccccc1
inhibition [1]: 2.6%
inhibition [2]: 11%
Rate constant for compound I formation [3]: 5.1 ×10⁶ /M/s
Ratio [4]: 24300
IC50 (Myeloperoxidase [5]): 460 nM
inhibition [6]: 6%
Activity [7]: 210 M⁻¹ s⁻¹

O=c1c(O)c(-c2ccc(O)c(O)c2)oc2cc(O)cc(O)c12 [QUERCETIN]
IC50 (Myeloperoxidase [8]): 1270 nM

COc1ccccc1N1CCN(C(=O)CSc2ncccc2-c2nc3ccccc3[nH]2)CC1
inhibition [1]: inactive
inhibition [2]: inactive
IC50 (Myeloperoxidase [5]): 6200 nM
inhibition [6]: inactive

O=C(NO)c1ccccc1O [SALICYLHYDROXAMIC ACID]
IC50 (Myeloperoxidase [9]): 3000 nM
Kd (Myeloperoxidase [10]): 2000 nM

COc1cc(-c2nc(-c3ccccc3)c(-c3ccccc3)[nH]2)ccc1OCC(=O)O
inhibition [1]: inactive
inhibition [2]: inactive
Rate constant for compound I formation [3]: 1.9 ×10⁶ /M/s
IC50 (Myeloperoxidase [5]): 970 nM
inhibition [6]: inactive

NC1=Nc2nc3ccccc3n2C(c2ccc(OCC(=O)O)cc2)N1 (stereo not given)
inhibition [1]: inactive
inhibition [2]: inactive
Rate constant for compound I formation [3]: 6.8 ×10⁵ /M/s
IC50 (Myeloperoxidase [5]): 3700 nM
inhibition [6]: inactive

CC(C)CN1C(=O)C2=NC=NC2=NC1=S
IC50 (Myeloperoxidase [8]): 870 nM

Oc1ccccc1CN1CCCN(Cc2ccccc2O)C1
inhibition [1]: 4.5%
inhibition [2]: 62%
Rate constant for compound I formation [3]: 5.1 ×10⁶ /M/s
IC50 (Myeloperoxidase [5]): 500 nM
inhibition [6]: 11%

CS(=O)(=O)Nc1ccc([N+](=O)[O-])cc1Oc1ccccc1 [NIMESULIDE]
IC50 (Myeloperoxidase [9]): 2100 nM

NCCc1c[nH]c2ccc(F)cc12
IC50 (Myeloperoxidase [9]): 790 nM

CCC1=CCCc2cc(OC)ccc21
IC50 (Myeloperoxidase [8]): 3000 nM

COc1cc(OC)c(C2N=C(N)Nc3nc4ccccc4n32)cc1OC (stereo not given)
inhibition [1]: inactive
inhibition [2]: inactive
Rate constant for compound I formation [3]: 1.4 ×10⁶ /M/s
Ratio [4]: 1.27e+06
IC50 (Myeloperoxidase [5]): 3500 nM
inhibition [6]: inactive
Activity [7]: 1.1 M⁻¹ s⁻¹

COc1ccc2cc(CN(Cc3ccc(F)cc3)C(=S)NCCCN(C)C)c(=O)[nH]c2c1
IC50 (Myeloperoxidase [5]): 3800 nM

COc1ccc2cc(CN(Cc3ccc(F)cc3)C(=S)NCCCN(C)C)c(O)nc2c1
inhibition [1]: inactive
inhibition [2]: inactive
Rate constant for compound I formation [3]: 9.36 ×10⁵ /M/s
inhibition [6]: inactive

C(=N\Nc1nc2ccccc2[nH]1)/c1c[nH]c2ccccc12
inhibition [1]: inactive
inhibition [2]: inactive
Rate constant for compound I formation [3]: 4.1 ×10⁷ /M/s
IC50 (Myeloperoxidase [5]): 12000 nM
inhibition [6]: inactive
